Values quoted from earlier work, collected in patent US9493446B2, “Orexin receptor antagonists which are [ortho bi-(hetero-)aryl]-[2-(meta bi-(hetero-)aryl)-pyrrolidin-1-yl]-methanone derivatives” (Actelion Pharmaceuticals Ltd, priority 2012, dated 2016).

Assays:
[1] = molecular target: orexin-1 (Homo sapiens (Human), UniProt O43613); details: cited from earlier work
[2] = test system: humans; details: primary insomnia; cited from earlier work
[3] = test system: rat; details: cited from earlier work
[4] = test system: rats; details: cited from earlier work
[5] = test system: rat; details: cited from earlier work; remark: listed apart in the source
[6] = test system: amyloid precursor protein transgenic mice; details: after acute sleep restriction, APP transgenic mice; cited from earlier work
[7] = test system: mouse; details: administered chronically; cited from earlier work
[8] = test system: fasted hungry rats; details: fasted hungry rats exposed to food odors; cited from earlier work
[9] = test system: rat; details: cited from earlier work; remark: listed apart in the source
[10] = test system: rodents; details: conditioned reinforcer; cited from earlier work
[11] = test system: rodents; details: cited from earlier work

orexin-1, sequence (O43613 whole entry): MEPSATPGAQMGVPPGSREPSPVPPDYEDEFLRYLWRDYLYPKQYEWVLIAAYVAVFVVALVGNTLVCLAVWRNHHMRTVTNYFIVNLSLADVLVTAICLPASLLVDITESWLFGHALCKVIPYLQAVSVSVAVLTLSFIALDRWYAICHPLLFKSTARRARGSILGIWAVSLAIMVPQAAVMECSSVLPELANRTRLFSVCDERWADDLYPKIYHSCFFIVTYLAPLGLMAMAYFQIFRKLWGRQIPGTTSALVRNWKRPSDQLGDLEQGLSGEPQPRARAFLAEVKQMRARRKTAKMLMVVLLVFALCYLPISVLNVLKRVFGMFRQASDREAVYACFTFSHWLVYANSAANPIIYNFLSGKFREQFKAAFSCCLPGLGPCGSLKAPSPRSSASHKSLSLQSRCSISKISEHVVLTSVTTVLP

SMILES: Cc1nc(C(=O)N2CCC[C@H]2Cc2nnc(-c3ccccc3)o2)c(-c2ccccc2F)s1 [1-(5-(2-fluoro-phenyl)-2-methyl-thiazol-4-yl)-1-[(S)-2-(5-phenyl-[1,3,4]oxadiazol-2-ylmethyl)-pyrrolidin-1-yl)-methanone]
- orexin receptor selectivity [1]: highly orexin-1 selective

SMILES: CNC(=O)[C@@H](c1ccccc1)N1CCc2cc(OC)c(OC)cc2[C@@H]1CCc1ccc(C(F)(F)F)cc1 [(2R)-2-{(1S)-6,7-dimethoxy-1-[2-(4-trifluoromethyl-phenyl)-ethyl]-3,4-dihydro-1H-isoquinolin-2-yl}-N-methyl-2-phenyl-acetamide]
- clinical efficacy [2]: showed clinical efficacy
- alertness (active wake and locomotion) [3]: decrease alertness
- time spent in REM and NREM sleep [3]: dose-dependently increase the time spent in both REM and NREM sleep
- cardiovascular responses to conditioned fear and novelty exposure [4]: attenuated cardiovascular responses to conditioned fear and novelty exposure
- activity in fear-potentiated startle paradigm [5]: active
- brain levels of amyloid-beta and plaque deposition [6]: decreased brain levels of amyloid-beta (Aβ) as well as Aβ plaque deposition
- antidepressant-like activity [7]: induce antidepressant-like activity
- natural activation induced by orexin A [8]: attenuate the natural activation induced by orexin A
- pharmacological activity in nicotine self-administration [9]: displayed pharmacological activity

SMILES: Cn1c(SCC(=O)N2CCC[C@H]2C(=O)Nc2ccccc2-c2ccccc2)nc2ccccc21 [N-Biphenyl-2-yl-1-{[(1-methyl-1H-benzimidazol-2-yl)sulfanyl]acetyl}-L-prolinamide]
- nicotine-reinstatement [10]: inhibited nicotine-reinstatement for a conditioned reinforcer
- behavioral and molecular changes induced by repeated amphetamine [11]: reduced behavioral (locomotor sensitization) and molecular (transcriptional responses) changes
